Like-named read-outs stand apart in the source and are kept apart here. Each block holds one molecule with its values, some of them ahead of it.
Columns and labels:
[1] = system: WiDr, SW620, HT29, HEK_LTV, and T84 cell lines; assay: cell proliferation and growth inhibition assay (CCK-8), cell line panel; type: cell-based, human; conditions: 72 h, FIG. 12
Protocol: Cell Proliferation and Growth Inhibition Assay. HT-29, HCT-116, WiDr, SW620, SW480, T84, A549, MCF-7, HepG2, Hela cells were cultured in respective growth medium. Cells of log phase were used. 3000-5000 cells/well were seeded in 96-well plates with a 100 μL volume. After 24 h, Compounds were dissolved to […] with DMSO, and a 3-fold serial dilution of the compounds from 5×10^−5 M to […] was performed. 2 μL of compound solution was added to 998 μL of growth medium, the mixture was vortexed sufficiently. 100 μL of the mixture was correspondingly added to the 96-well plate. 2 μL DMSO instead of compound solution was used as the 0% inhibitor control. After coincubation for 72 h, the old medium was removed and 100 μL of 10% CCK-8 in culture medium was added. 2 h later the plates were read in the microplate reader (Bio-Rad) at 450 nm. The data was calculated using Graph Pad Prism version 5.0. The IC50 were fitted using a nonlinear regression model with a sigmoidal dose response.

[2] = system: Wnt/β-catenin pathway; assay: dual-luciferase TCF/LEF reporter assay, LiCl-activated, HEK293 cells; type: cell-based; conditions: Homo sapiens
Protocol: Lithium chloride (LiCl), which has been previously established as an activator of the Wnt/β-catenin pathway through its direct and indirect effects on GSK3β was used for pathway activation. The inhibition of the Wnt/β-catenin pathway by a compound may be determined after its incubation with cells for 24 hours.
The assay provided herein is a dual-luciferase assay to measure Wnt/β-catenin pathway activation using a TCF/LEF responsive reporter construct similar to that described previously (Thorne et al., 2010).

[3] = system: C57BL/6 mice on high-fat diet; assay: YW1128 in high-fat diet mice (liver histology, IPGTT, body weight); type: in vivo
Protocol: Mice were treated with YW1128 and representative liver histology was observed through H&E staining. C57BL/6 mice were placed on a high-fat diet. Seven weeks later (week 0), the mice received either vehicle or YW1128 by IP injection for 11 weeks. Regarding treatment with YW1128, the mice were initially treated at a dose of 10 mg/kg/2 days, which was increased to 40 mg/kg/2 days from week 8. The mice were then euthanized at the end of 11 weeks. Liver histology for vehicle (FIGS. 33A and 33B) and YW1128 (FIGS. 33C and 33D) was examined by H&E staining.
An intraperitoneal glucose tolerance test (IPGTT) was conducted on high-fat diet (HFD) groups at the end of the study. C57BL/6 mice (n=3-4 per group) were put on a high fat diet. Seven weeks later (week 0), the mice received either vehicle or YW1128 by IP injection for 11 weeks. Regarding the treatment with YW1128, the mice were initially treated at a dose of 10 mg/kg/2 days, which was increased to 40 mg/kg/2 days from week 8. FIG. 34A describes the glucose levels at up to 120 minutes post-injection at week 0. FIG. 34B describes the glucose levels at up to 120 minutes post-injection at week 11, where *P<0.05 and **P<0.01, compared to the […].
The effect of YW1128 on body weight was also observed in mice having normal diets (NC) and those having high-fat (HF) diets. C57BL/6 mice (n=3-4 per group) were put on either an HF diet or an NC diet. Seven weeks later, the mice received either YW1128 or vehicle by IP injection. Regarding the treatment with YW1128, the mice were treated at a dose of 40 mg/kg/2 days for seven weeks. The results of such study are shown in FIG. 35, where *P<0.05 for the comparison between HF-vehicle and the other three groups.

[4] = system: C57BL/6 mice on Western high-fat diet; assay: YW1128 on high-fat diet-induced steatosis, liver protein analysis; type: in vivo; conditions: I.P. 40 mg/kg/2 days, 11 weeks
Text: FIGS. 36A to 36D illustrate the effect of YW1128 on a high-fat diet (HFD)-induced steatosis. FIG. 36A illustrates representative liver histology by H&E staining. FIG. 36B illustrates an intraperitoneal glucose tolerance test (IPGTT) performed at the end of a study. FIG. 36C illustrates body weight monitoring performed during the treatment.
C57BL/6 mice (n=7/group) were put on a Western high-fat diet (HFD) or normal chow diet (NCD). Seven weeks later, the mice received either vehicle or YW1128 by I.P., 40 mg/kg/2 days, for 11 weeks. Representative liver histology was measured by H&E staining (FIG. 36A). An intraperitoneal glucose tolerance test (IPGTT) was conducted at the end of the study (FIG. 36B). Body weight for the mice was monitored during the treatment (FIG. 36C).

[5] = system: C57BL/6 mice on high-fat diet; conditions: intraperitoneal
Text: C57BL/6 mice (n=6/group) were put either on high-fat (HF) or normal chow (NC) diet.

[6] = system: HepG2 cells; assay: expression of Wnt pathway proteins; type: cell-based, human; conditions: FIG. 3
Protocol: HepG2 cells were treated by YW1149 (vehicle, 0.1, 1 μM).

[7] = system: HepG2 cells; assay: glucose production, G6P expression and AMPK phosphorylation; type: cell-based, human
[8] = HEK293, Table 6, read-out: IC50 (nM) or remaining activity at 1 μM: IC50
[9] = HEK293, 24 h, At 1 μM concentration, remaining Wnt signaling activity, read-out: RLU % (Relative Light Units in reporter gene assays)
[10] = HEK293, Table 3, values in μM, read-out: IC50
[11] = HEK293, Table 3, values in nM, read-out: IC50
[12] = high-fat diet mice, IP injection
[13] = HepG2, 0.1 μM pyrvinium, 10 μM YW1149

Molecule: 1-(2-Fluorophenyl)-5-methyl-N-(quinolin-2-yl)-1H-pyrazole-4-carboxamide [YW2035]
growth inhibitory activity [1]: micromolar growth inhibitory activity

Molecule: Cc1c(C(=O)Nc2ccc3ccccc3n2)cnn1C(C)(C)C [YW2049, 1-(Tert-butyl)-5-methyl-N-(quinolin-2-yl)-1H-pyrazole-4-carboxamide]
growth inhibitory activity [1]: micromolar growth inhibitory activity

IC50 ([2]; HEK293, Table 5, read-out: IC50 (nM) or remaining activity at 1 μM: IC50): > 1000 nM
Molecule: Cc1ccc(-n2nnc(C(=O)NCc3ccccn3)c2C)cc1 [Compound 25, 5-Methyl-N-(pyridin-2-ylmethyl)-1-(p-tolyl)-1H-1,2,3-triazole-4-carboxamide]

IC50 [2, 8]: 5000 nM
Molecule: Cc1c(C(=O)Nc2ccc3ccccc3n2)nnn1-c1ccc(F)cc1[N+](=O)[O-] [Compound 41, 1-(4-Fluoro-2-nitrophenyl)-5-methyl-N-(quinolin-2-yl)-1H-1,2,3-triazole-4-carboxamide]

IC50 [2, 10]: 4000 nM
Molecule: Cc1c(C(=O)Nc2ccc3ccccc3n2)nnn1-c1cccc2ccccc12 [YW1151, 5-Methyl-1-(naphthalen-1-yl)-N-(quinolin-2-yl)-1H-1,2,3-triazole-4-carboxamide]
activity at 1 µM [2, 9]: 79.3%

Molecule: Cc1ccc(-n2nnc(C(=O)Nc3ccc4ccccc4n3)c2C)cc1 [Compound 27, 5-Methyl-N-(quinolin-2-yl)-1-(p-tolyl)-1H-1,2,3-triazole-4-carboxamide]
activity at 1 µM ([2]; HEK293, Table 6, @ 1 μM, read-out: IC50 (nM) or remaining activity at 1 μM: remaining activity): 56.4 ± 2%

IC50 [2, 10]: > 100000 nM
Molecule: Cc1c(C(=O)Nc2ccc3ccccc3n2)nnn1-c1ccccc1C(N)=O [YW1182, 1-(2-Carbamoylphenyl)-5-methyl-N-(quinolin-2-yl)-1H-1,2,3-triazole-4-carboxamide]
activity at 1 µM [2, 9]: 89.9%

IC50 [2, 11]: 130 nM
Molecule: Cc1ccc(-n2nnc(C(=O)Nc3ccc4ccccc4n3)c2C)c(C)c1 [YW1179, 1-(2,4-Dimethylphenyl)-5-methyl-N-(quinolin-2-yl)-1H-1,2,3-triazole-4-carboxamide]
activity at 1 µM [2, 9]: 10.6%

IC50 [2, 11]: 567 nM
Molecule: Cc1cccc(-n2nnc(C(=O)Nc3ccc4ccccc4n3)c2C)c1C [YW1170, 1-(2,3-Dimethylphenyl)-5-methyl-N-(quinolin-2-yl)-1H-1,2,3-triazole-4-carboxamide]
activity at 1 µM [2, 9]: 17.8%

IC50 [2, 11]: 471 nM
Molecule: Cc1ccccc1-n1nnc(C(=O)Nc2ccc3ccccc3c2)c1C [YW1130, 5-Methyl-N-(naphthalen-2-yl)-1-(o-tolyl)-1H-1,2,3-triazole-4-carboxamide]
activity at 1 µM [2, 9]: 19.7%

IC50 [2, 8]: > 1000 nM
Molecule: Cc1c(C(=O)Nc2ccc3ccccc3n2)nnn1-c1ccccc1N1CCOCC1 [Compound 37, 5-Methyl-1-(2-morpholinophenyl)-N-(quinolin-2-yl)-1H-1,2,3-triazole-4-carboxamide]

IC50 [2, 11]: 177 nM
Molecule: CC(C)c1c(C(=O)Nc2ccc3ccccc3n2)nnn1-c1ccccc1F [YW2020, 1-(2-Fluorophenyl)-5-isopropyl-N-(quinolin-2-yl)-1H-1,2,3-triazole-4-carboxamide]
activity at 1 µM [2, 9]: 17.7%

IC50 [2, 8]: 10 nM
Molecule: Cc1c(C(=O)Nc2ccc3ccccc3n2)nnn1-c1ccccc1Br [Compound 36, 1-(2-Bromophenyl)-5-methyl-N-(quinolin-2-yl)-1H-1,2,3-triazole-4-carboxamide]

Molecule: Cc1ccccc1-n1nnc(C(=O)Nc2ccc3ccccc3n2)c1C [YW1128, 5-Methyl-N-(quinolin-2-yl)-1-(o-tolyl)-1H-1,2,3-triazole-4-carboxamide]
liver histology (H&E), fatty liver disease ([3]; high-fat diet mice, IP 11 weeks): did not exhibit any histology of fatty liver disease | body weight gain [3, 12]: decrease body weight gain | glucose tolerance (IPGTT) [3, 12]: significantly improve glucose tolerance | toxicity of subchronic treatment ([3]; mice, IP, up to 40 mg/kg/2 days): did not cause any obvious toxicity | growth inhibitory activity [1]: micromolar growth inhibitory activity | activity at 1 µM [2, 9]: 3.7% | IC50 [2, 11]: 7.7 nM | CK1a in liver [4]: did not show any significant change | phosphorylation of AMPKα1 at threonine 172 (p-AMPKα) in liver ([4]; vs vehicle-treated livers, 40 mg/kg): increased phosphorylation

IC50 [2, 8]: 567 nM
Molecule: Cc1cccc(-n2nnc(C(=O)Nc3ccc4ccccc4n3)c2C)c1C [Compound 42, 1-(2,3-Dimethylphenyl)-5-methyl-N-(quinolin-2-yl)-1H-1,2,3-triazole-4-carboxamide]

IC50 [2, 10]: 49000 nM
Molecule: Cc1ccc(-n2c(C)cc(C(=O)NCc3ccccc3)c2C)cc1 [YW1104, N-Benzyl-2,5-dimethyl-1-(p-tolyl)-1H-pyrrole-3-carboxamide]
activity at 1 µM [2, 9]: 92.9%

IC50 [2, 11]: 731 nM
Molecule: Cc1c(C(=O)Nc2ccc3ccccc3n2)nnn1-c1cccc(Cl)c1 [YW1173, 1-(3-Chlorophenyl)-5-methyl-N-(quinolin-2-yl)-1H-1,2,3-triazole-4-carboxamide]
activity at 1 µM [2, 9]: 26.3%

IC50 [2, 8]: > 100000 nM
Molecule: Cc1c(C(=O)Nc2ccc3ccccc3n2)nnn1-c1ccccc1C(N)=O [Compound 40, 1-(2-Carbamoylphenyl)-5-methyl-N-(quinolin-2-yl)-1H-1,2,3-triazole-4-carboxamide]

IC50 [2, 10]: 5000 nM
Molecule: Cc1c(C(=O)Nc2ccc3ccccc3n2)nnn1-c1ccc(F)cc1[N+](=O)[O-] [YW1171, 1-(4-Fluoro-2-nitrophenyl)-5-methyl-N-(quinolin-2-yl)-1H-1,2,3-triazole-4-carboxamide]
activity at 1 µM [2, 9]: 77.8%

Molecule: Cc1cc(/C=C/c2ccc3cc(N(C)C)ccc3[n+]2C)c(C)n1-c1ccccc1 [Pyrvinium, pyrvinium, reference compound]
weight gain [5]: decrease weight gain | Axin protein expression [6]: increased | β-catenin and target gene c-Myc protein [6]: attenuation | expression of glucose 6-phosphatase (G6P) [7, 13]: significantly suppress | glucose production [7, 13]: significantly suppress | phosphorylation of AMPK ([7]; HepG2 cells): increase phosphorylation

Molecule: Cc1ccc(-n2nnc(C(=O)Nc3ccccn3)c2C)cc1 [YW1119, 5-Methyl-N-(pyridin-2-yl)-1-(p-tolyl)-1H-1,2,3-triazole-4-carboxamide]
activity at 1 µM [2, 9]: 106%

IC50 [2, 11]: 10 nM
Molecule: Cc1c(C(=O)Nc2ccc3ccccc3n2)nnn1-c1ccccc1Br [YW1169, 1-(2-Bromophenyl)-5-methyl-N-(quinolin-2-yl)-1H-1,2,3-triazole-4-carboxamide]
activity at 1 µM [2, 9]: 3.2%

From US12378220B2, “WNT signaling pathway inhibitors for treatments of disease” (University of Maryland, Baltimore, priority 2016, dated 2025)
